The results in this text go back to article PMC5783947 (2018).

Assay [1] relates to add riboswitch aptamer (RNA, riboswitch) CAACGCUUCAUAUAAUCCUAAUGAUAUGGUUUGGGAGUUUCUACCAAGAGCCUUAAACUCUUGAUUAUGAAGUCUGUCGCUUUAUCC
In words: ACE-Scan microarray, ligand-induced duplex dissociation. As to conditions: 130 mM KCl, 12 mM MgCl2; 50 mM Tris, pH 7.5, 23 °C; 4 mM adenine; array-bound ACEs displaced; weaker at lower Mg2+ or 10 °C.

In assay [2] the test system is ATP DNA aptamer (with 5' extension) (DNA, aptamer) TCACTGACCTGGGGGAGTATTGCGGAGGAAGGT
In words: solution FRET dose-response, quencher strand displacement. The conditions noted are these: 300 mM NaCl, 5 mM MgCl2; 20 mM Tris, pH 8.3, 0.1% Tween-20, 22.5 °C; BHQ-2 ACEs 5'Q-2T:9, 5'Q4T:10, 5'Q4T:12:6G, 5'Q1A:15, 5'Q-5C:9 displaced.

Assay [3] deals with ATP RNA aptamer (RNA, aptamer) CUUGGGUUGGGAAGAAACUGUGGCACUUCGGUGCCAGCAACCCCAU
Put plainly: ACE-Scan microarray, ligand-induced duplex dissociation. The conditions noted are these: 300 mM NaCl, 5 mM MgCl2; 20 mM Tris, pH 7.6, room temperature; 10 mM ATP; array-bound ACEs displaced.

Each structure is given as a SMILES string.

In the case of `Nc1ncnc2[nH]cnc12`, in assay [1], the binding result was “yes”.
For `Nc1ncnc2c1ncn2[C@@H]1O[C@H](COP(=O)(O)OP(=O)(O)OP(=O)(O)O)[C@@H](O)[C@H]1O`, the binding entry in assay [2] and in assay [3] was “yes” each time.
